From patent US10070645B2, “N-cycloalkyl-N-{[2-(1-substitutedcycloalkyl)phenyl]methylene}-(thio)carboxamide derivatives” (BAYER CROPSCIENCE AKTIENGESELLSCHAFT, priority 2013, dated 2018)
Where “and” joins values, the source holds several entries; their conditions need not be identical. Equal entries are not always repeated. One block for each compound: values may come before it.

How the values were obtained:
[1] = tested on: Puccinia recondita; assay: In vivo preventive test on Puccinia recondita (brown rust on wheat); details: for protection: dose of 100 and 10 ppm of active ingredient
Experimental: In Vivo Preventive Test on Puccinia recondita (Brown Rust on Wheat)
(§1) Solvent: 5% by volume of Dimethyl sulfoxide • 10% by volume of Acetone
(§2) Emulsifier: 1 μL of Tween® 80 per mg of active ingredient
The active ingredients are made soluble and homogenized in a mixture of Dimethyl sulfoxide/Acetone//Tween® 80 and then diluted in water to the desired concentration.
The young plants of wheat are treated by spraying the active ingredient prepared as described above. Control plants are treated only with an aqueous solution of Acetone/Dimethyl sulfoxide/Tween® 80. After 24 hours, the plants are contaminated by spraying the leaves with an aqueous suspension of Puccinia recondita spores. The contaminated wheat plants are incubated for 24 hours at 20° C. and at 100% relative humidity and then for 10 days at 20° C. and at 70-80% relative humidity.
(§3) The test is evaluated 11 days after the inoculation. 0% means an efficacy which corresponds to that of the control plants while an efficacy of 100% means that no disease is observed.

[2] = tested on: Uromyces appendiculatus; assay: In vivo preventive test on Uromyces appendiculatus (bean rust); details: for protection: dose of 100 and 10 ppm of active ingredient
Experimental: In Vivo Preventive Test on Uromyces appendiculatus (Bean Rust)
as §1, §2
The active ingredients are made soluble and homogenized in a mixture of Dimethyl sulfoxide/Acetone/Tween® 80 and then diluted in water to the desired concentration.
The young plants of bean are treated by spraying the active ingredient prepared as described above. Control plants are treated only with an aqueous solution of Acetone/Dimethyl sulfoxide/Tween® 80.
After 24 hours, the plants are contaminated by spraying the leaves with an aqueous suspension of Uromyces appendiculatus spores. The contaminated bean plants are incubated for 24 hours at 20° C. and at 100% relative humidity and then for 10 days at 20° C. and at 70-80% relative humidity.
as §3

[3] = tested on: Phakopsora pachyrhizi; assay: In vivo preventive test on Phakopsora pachyrhizi (soybean rust); details: for protection: dose of 10 ppm of active ingredient
Experimental: In Vivo Preventive Test on Phakopsora pachyrhizi (Soybean Rust)
Solvent: 24.5 parts by weight of acetone • 24.5 parts by weight of N,N-dimethylacetamide
Emulsifier: 1 part by weight of alkylaryl polyglycol ether
To produce a suitable preparation of active compound, 1 part by weight of active compound is mixed with the stated amounts of solvent and emulsifier, and the concentrate is diluted with water to the desired concentration.
To test for preventive activity, young plants are sprayed with the preparation of active compound at the stated rate of application. After the spray coating has dried on, the plants are inoculated with an aqueous spore suspension of the causal agent of soybean rust (Phakopsora pachyrhizi) and stay for 24 h without light in an incubation cabinet at approximately 24° C. and a relative atmospheric humidity of 95%.
The plants remain in the incubation cabinet at approximately 24° C. and a relative atmospheric humidity of approximately 80% and a day/night interval of 12 h.
The test is evaluated 7 days after the inoculation. 0% means an efficacy which corresponds to that of the untreated control, while an efficacy of 100% means that no disease is observed.

[4] = log P by HPLC on a reversed-phase column (C 18), EEC Directive 79/831 Annex V.A8; type: physicochemical; details: HPLC, reversed-phase column (C 18), 40° C., 0.1% aqueous formic acid and acetonitrile, linear gradient 10% to 90% acetonitrile
How it was run: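 Reversed-phase C18 HPLC at 40° C, 0.1% aqueous formic acid/acetonitrile gradient from 10% to 90% acetonitrile. log P derived from retention times by linear interpolation between unbranched alkan-2-ones (3–16 carbons) of known log P.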

SMILES: Cn1nc(C(F)F)c(C(=O)N(Cc2cc(F)ccc2C2(C)CC2)C2CC2)c1Cl [I.8 from WO-2013/156559, 5-chloro-N-cyclopropyl-3-(difluoromethyl)-N-[5-fluoro-2-(1-methylcyclopropyl)benzyl]-1-methyl-1H-pyrazole-4-carboxamide, reference compound]
Efficacy ([1]; Table A1, dose 10 ppm): 38%
Efficacy ([1]; Table A1, dose 100 ppm): 94%
protection ([1]; listed as I.8): total to average (less than 40%) protection
Efficacy ([2]; Table B2, dose 10 ppm): 14%
Efficacy ([2]; Table B2, dose 100 ppm): 95%
protection ([2]; listed as I.8): total to poor (less than 20%) protection

SMILES: Cn1nc(C(F)F)c(C(=O)N(Cc2cc(F)ccc2C2CC2)C2CC2)c1F [123 from WO-2010/130767, N-cyclopropyl-N-(2-cyclopropyl-5-fluorobenzyl)-3-(difluoromethyl)-5-fluoro-1-methyl-1H-pyrazole-4-carboxamide, reference compound]
Efficacy ([3]; Table C3, dose 10 ppm): 0%
protection [3]: no protection

SMILES: Cn1nc(C(F)F)c(C(=O)N(Cc2cc(F)ccc2C2(C)CC2)C2CC2)c1Cl [I.067]
Efficacy ([1]; Table A1, dose 10 ppm): 98%
Efficacy ([1]; Table A1, dose 100 ppm): 100%
protection [1]: at least 90%
Efficacy ([2]; Table B2, dose 10 ppm): 93%
Efficacy ([2]; Table B2, dose 100 ppm): 100%
protection [2]: at least 90%
logP [4]: 4.04

SMILES: Cn1nc(C(F)F)c(C(=O)N(Cc2cc(Cl)ccc2C2CC2)C2CC2)c1F [41 from WO-2010/130767, N-(5-chloro-2-cyclopropylbenzyl)-N-cyclopropyl-3-(difluoromethyl)-5-fluoro-1-methyl-1H-pyrazole-4-carboxamide, reference compound]
Efficacy ([3]; Table C2, dose 10 ppm): 0%
protection [3]: no protection

SMILES: Cc1ccc(C(F)(F)F)c(CN(C(=O)c2c(C(F)F)nn(C)c2F)C2CC2)c1 [12 from WO-2010/130767, N-cyclopropyl-3-(difluoromethyl)-5-fluoro-1-methyl-N-[5-methyl-2-(trifluoromethyl)benzyl]-1H-pyrazole-4-carboxamide, reference compound]
Efficacy ([3]; Table C1, dose 10 ppm): 0%
protection [3]: no protection

Further lines, with some results ahead:

logP [4]: 4.67
SMILES: CCC1(c2cc(C)c(F)cc2CN(C(=O)c2c(C(F)F)nn(C)c2F)C2CC2)CC1 [I.106]
Efficacy ([3]; Table C3, dose 10 ppm): 100% and 98%

logP [4]: 3.89
SMILES: Cn1nc(C(F)F)c(C(=O)N(Cc2cc(F)ccc2C2(C)CC2)C2CC2)c1F [I.066]
Efficacy ([2]; Table B1, dose 10 ppm): 100%
Efficacy ([2]; Table B1, dose 100 ppm): 100%
protection [2]: total protection
Efficacy ([3]; Table C3, dose 10 ppm): 89%

logP [4]: 4.59
SMILES: CCC1(c2ccc(Cl)cc2CN(C(=O)c2c(C(F)F)nn(C)c2F)C2CC2)CC1 [I.110]
Efficacy ([3]; Table C2, dose 10 ppm): 98%
protection [3]: at least 90%

logP [4]: 4.19
SMILES: Cc1ccc(C2(C)CC2)c(CN(C(=O)c2c(C(F)F)nn(C)c2F)C2CC2)c1 [I.071]
Efficacy ([3]; Table C1, dose 10 ppm): 99%
protection [3]: at least 90%
